Reference: patent US20150105252A1, “SUBSTITUTED PYRAZOLES AS HERBICIDES” (E I DU PONT DE NEMOURS AND COMPANY, priority 2013, published 2015)

Columns and labels:
kochia = assay: Test E preemergence; assay type: in vivo, Kochia scoparia; settings: 21 days, scale 0 to 100
Excerpt: (§1) Seeds of plant species selected from bermudagrass (Cynodon dactylon), Surinam grass (Brachiaria decumbens), crabgrass, large (large crabgrass, Digitaria sanguinalis), crabgrass, naked (naked crabgrass, Digitaria nuda), foxtail, green (green foxtail, Setaria viridis), johnsongrass (Sorghum halepense), kochia (Kochia scoparia), morningglory (pitted morningglory, Ipomoea lacunosa), nutsedge, purple (purple nutsedge, Cyperus rotundus), ragweed (common ragweed, Ambrosia elation), mustard, black (black mustard, Brassica nigra), guineagrass (Panicum maximum), dallisgrass (Paspalum dilatatum), barnyardgrass (Echinochloa crus-galli), sandbur (southern sandbur, Cenchrus echinatus), sowthistle (common sowthistle, Sonchus oleraceous), ryegrass, Italian (Italian ryegrass, Lolium multiflorum), signalgrass (broadleaf signalgrass, Brachiaria platyphylla), dayflower, VA (Virginia (VA) dayflower, Commelina virginica), bluegrass (annual bluegrass, Poa annua), quackgrass (Elytrigia repens), mallow (common mallow, Malva sylvestris), buckwheat, wild (wild buckwheat, Polygonum convolvulus), leafy spurge (Euphorbia esula), common chickweed (Stellaria media), wild poinsettia (Euphorbia heterophylla), pigweed, palmer (palmer pigweed, Amaranthus palmeri), and pigweed (redroot pigweed, Amaranthus retroflexus) were planted into a blend of loam soil and sand and treated preemergence with test chemicals formulated in a non-phytotoxic solvent mixture which included a surfactant.
(§2) Treated plants and controls were maintained in a greenhouse for 21 days, after which time all species were compared to controls and visually evaluated. Plant response ratings, summarized in Table E, are based on a scale of 0 to 100 where 0 is no effect and 100 is complete control. A dash (-) response means no test result.

ragweed = assay: Test E preemergence; assay type: in vivo, Ambrosia elation; settings: 21 days, scale 0 to 100
Excerpt: as §1, §2

dallisgrass = assay: Test E preemergence; assay type: in vivo, Paspalum dilatatum; settings: 21 days, scale 0 to 100
Excerpt: as §1, §2

pigweed, palmer = assay: Test E preemergence; assay type: in vivo, Amaranthus palmeri; settings: 21 days, scale 0 to 100
Excerpt: as §1, §2

fall panicum = assay: Test F postemergence; assay type: in vivo, Panicum dichotomiflorum; settings: scale 0 to 100
Excerpt: (§3) Seeds of plant species selected from corn (Zea mays), soybean (Glycine max), velvetleaf (Abutilon theophrasti), lambsquarters (Chenopodium album), wild poinsettia (Euphorbia heterophylla), pigweed, palmer (palmer pigweed, Amaranthus palmeri), common waterhemp (Amaranthus rudis), surinam grass (Brachiaria decumbens), large crabgrass (Digitaria sanguinalis), crabgrass, Brazil (Brazilian crabgrass, Digitaria horizontalis), fall panicum (Panicum dichotomiflorum), giant foxtail (Setaria faberii), green foxtail (Setaria viridis), goosegrass (Eleusine indica), johnsongrass (Sorghum halepense), common ragweed (Ambrosia elation), barnyardgrass (Echinochloa crus-galli), southern sandbur (Cenchrus echinatus), arrowleaf sida (Sida rhombifolia), Italian ryegrass (Lolium multiflorum), dayflower, VA (Virginia (VA) dayflower, Commelina virginica), field bindweed (Convolvulus arvensis), cocklebur (common cocklebur, Xanthium strumarium), morningglory (Ipomoea coccinea), nightshade (eastern black nightshade, Solanum ptycanthum), kochia (Kochia scoparia), yellow nutsedge (Cyperus esculentus), and hairy beggarticks (Bidens pilosa), were planted into a silt loam soil and treated preemergence with test chemicals formulated in a non-phytotoxic solvent mixture which included a surfactant.
(§4) At the same time, plants from these crop and weed species and also horseweed (Canada horseweed, Conyza canadensis), smartweed (ladysthumb smartweed, Polygonum persicaria), waterhemp_RES1, (ALS & Triazine resistant common waterhemp, Amaranthus rudis), and waterhemp_RES2, (ALS & HPPD resistant common waterhemp, Amaranthus rudis) were treated with postemergence applications of test chemicals formulated in the same manner. Plants ranged in height from 2 to 18 cm for postemergence treatments (1- to 4-leaf stage). Treated plants and controls were maintained in a greenhouse for 14 to 21 days, after which time all species were compared to controls and visually evaluated. Plant response ratings, summarized in Table F, are based on a scale of 0 to 100 where 0 is no effect and 100 is complete control. A dash (-) response means no test result.

southern sandbur = assay: Test F postemergence; assay type: in vivo, Cenchrus echinatus; settings: scale 0 to 100
Excerpt: as §3, §4

cocklebur = assay: Test F preemergence; assay type: in vivo, Xanthium strumarium; settings: scale 0 to 100
Excerpt: as §3
as §4, with “A dash (-) response means no test result.” left out

Structure (SMILES) | Plant response rating, Kochia (kochia; 16 g ai/ha) | Plant response rating, Kochia (kochia; 31 g ai/ha) | Plant response rating, Kochia (kochia; 62 g ai/ha) | Plant response rating, Kochia (kochia; 125 g ai/ha) | Plant response rating, Kochia (kochia; 250 g ai/ha) | Plant response rating, Ragweed (ragweed; 16 g ai/ha) | Plant response rating, Ragweed (ragweed; 31 g ai/ha) | Plant response rating, Ragweed (ragweed; 62 g ai/ha) | Plant response rating, Ragweed (ragweed; 125 g ai/ha) | Plant response rating, Ragweed (ragweed; 250 g ai/ha) | Plant response rating, Dallisgrass (dallisgrass; 16 g ai/ha) | Plant response rating, Dallisgrass (dallisgrass; 31 g ai/ha) | Plant response rating, Dallisgrass (dallisgrass; 62 g ai/ha) | Plant response rating, Dallisgrass (dallisgrass; 125 g ai/ha) | Plant response rating, Dallisgrass (dallisgrass; 250 g ai/ha) | Plant response rating, Fall Panicum (fall panicum; Postemergence, 31 g ai/ha) | Plant response rating, Fall Panicum (fall panicum; Postemergence, 125 g ai/ha) | Plant response rating, Fall Panicum (fall panicum; Postemergence, 250 g ai/ha) | Plant response rating, Fall Panicum (fall panicum; postemergence, 62 g ai/ha) | Plant response rating, Fall Panicum (fall panicum; postemergence, 500 g ai/ha) | also measured
CCc1cc(C(=O)NCC(F)(F)F)nn1Cc1ccnc(C(F)(F)F)c1 [Compound 78, 5-ethyl-N-(2,2,2-trifluoroethyl)-1-[[(2-trifluoromethyl)-4-pyridinyl]methyl]-1H-pyrazole-3-carboxamide] | 100 | 100 | 100 | 100 | 100 | 75 | 100 | 100 | 100 | 100 | 90 | 100 | 100 | 100 | 100 | 10 | 50 | 90 | 20 | 95 | Plant response rating, Pigweed, Palmer (pigweed, palmer; 16 g ai/ha): 40; Plant response rating, Pigweed, Palmer (pigweed, palmer; 31 g ai/ha): 80; Plant response rating, Pigweed, Palmer (pigweed, palmer; 62 g ai/ha): 100; Plant response rating, Pigweed, Palmer (pigweed, palmer; 125 g ai/ha): 100; Plant response rating, Pigweed, Palmer (pigweed, palmer; 250 g ai/ha): 100; Plant response rating, Southern Sandbur (southern sandbur; Postemergence, 31 g ai/ha): 0; Plant response rating, Southern Sandbur (southern sandbur; Postemergence, 125 g ai/ha): 30; Plant response rating, Southern Sandbur (southern sandbur; Postemergence, 250 g ai/ha): 80; Plant response rating, Southern Sandbur (southern sandbur; postemergence, 62 g ai/ha): 10; Plant response rating, Southern Sandbur (southern sandbur; postemergence, 500 g ai/ha): 90
CCc1cc(C(=O)NC(C)C)nn1Cc1ccnc(C(F)(F)F)c1 [Compound 103] | 95 | 100 | 100 | 100 | 100 | 5 | 98 | 100 | 100 | 100 | 90 | 100 | 100 | 100 | 100 | – | – | – | – | – | –
CCOc1cc(C(=O)NCC(F)(F)F)nn1Cc1ccnc(C(F)(F)F)c1 [Compound 104] | 100 | 100 | 100 | 100 | 100 | 100 | 100 | 100 | 100 | 100 | 95 | 98 | 100 | 100 | 100 | 10 | 50 | 80 | 40 | 90 | Plant response rating, Southern Sandbur (southern sandbur; Postemergence, 31 g ai/ha): 10; Plant response rating, Southern Sandbur (southern sandbur; Postemergence, 125 g ai/ha): 45; Plant response rating, Southern Sandbur (southern sandbur; Postemergence, 250 g ai/ha): 90; Plant response rating, Southern Sandbur (southern sandbur; postemergence, 62 g ai/ha): 30; Plant response rating, Southern Sandbur (southern sandbur; postemergence, 500 g ai/ha): 90
CCCc1cc(C(=O)NCC(F)(F)F)nn1Cc1ccnc(C(F)(F)F)c1 [Compound 105] | 100 | 100 | 100 | 100 | 100 | 70 | 100 | 100 | 100 | 100 | 20 | 95 | 100 | 100 | 100 | 10 | 30 | 80 | 20 | 90 | Plant response rating, Southern Sandbur (southern sandbur; Postemergence, 31 g ai/ha): 0; Plant response rating, Southern Sandbur (southern sandbur; Postemergence, 125 g ai/ha): 30; Plant response rating, Southern Sandbur (southern sandbur; Postemergence, 250 g ai/ha): 70; Plant response rating, Southern Sandbur (southern sandbur; postemergence, 62 g ai/ha): 10; Plant response rating, Southern Sandbur (southern sandbur; postemergence, 500 g ai/ha): 90
CCOc1cc(C(=O)NC(C)C)nn1Cc1ccnc(C(F)(F)F)c1 [Compound 188] | – | – | – | – | – | – | – | – | – | – | – | – | – | – | – | 20 | 55 | 75 | 20 | 90 | Plant response rating, Southern Sandbur (southern sandbur; Postemergence, 31 g ai/ha): 0; Plant response rating, Southern Sandbur (southern sandbur; Postemergence, 125 g ai/ha): 50; Plant response rating, Southern Sandbur (southern sandbur; Postemergence, 250 g ai/ha): 70; Plant response rating, Southern Sandbur (southern sandbur; postemergence, 62 g ai/ha): 20; Plant response rating, Southern Sandbur (southern sandbur; postemergence, 500 g ai/ha): 90
CCOc1cc(C(=O)NC2CC2)nn1Cc1ccnc(C(F)(F)F)c1 [Compound 189] | 100 | 100 | 100 | – | – | 100 | 100 | 100 | – | – | 75 | 100 | 100 | – | – | – | – | – | – | – | Plant response rating, Kochia (kochia; 4 g ai/ha): 98; Plant response rating, Kochia (kochia; 8 g ai/ha): 100; Plant response rating, Ragweed (ragweed; 8 g ai/ha): 95; Plant response rating, Dallisgrass (dallisgrass; 4 g ai/ha): 0; Plant response rating, Dallisgrass (dallisgrass; 8 g ai/ha): 5
CCc1cc(C(=O)NC2CC2)nn1Cc1ccnc(OCC(F)(F)F)c1 [Compound 200] | – | – | – | – | – | – | – | – | – | – | – | – | – | – | – | – | – | – | – | – | Plant response rating, Cocklebur (cocklebur; 16 g ai/ha): 20; Plant response rating, Cocklebur (cocklebur; 62 g ai/ha): 30; Plant response rating, Cocklebur (cocklebur; 250 g ai/ha): 30
